Measured values taken from ChEMBL document CHEMBL1129670, “Synthesis and structure-activity relationships of N-propyl-N-(4-pyridinyl)-1H-indol-1-amine (besipirdine) and related analogs as potential therapeutic agents for Alzheimer's disease” (J Med Chem, 1996).

Experiments:
Mus musculus [1] = organism: Mus musculus; experiment: Antagonistic activity against Scopolamine induced behavioral deficits in mice; 0/3; format: functional
[2] = target: Muscarinic acetylcholine receptor; format: cell membranes, Membrane
Description: Inhibition of [3H]quinuclidinyl benzilate (QNB) binding from rat forebrain membranes in the absence of Zn

[3] = target: Muscarinic acetylcholine receptor; format: cell membranes, Membrane; remark: listed apart in the source
Description: Inhibition of [3H]quinuclidinyl benzilate (QNB) binding from rat forebrain membranes in the presence of Zn

Acetylcholinesterase = target: T1, Acetylcholinesterase (Rattus norvegicus, UniProt P37136)
T1 sequence (P37136 whole entry): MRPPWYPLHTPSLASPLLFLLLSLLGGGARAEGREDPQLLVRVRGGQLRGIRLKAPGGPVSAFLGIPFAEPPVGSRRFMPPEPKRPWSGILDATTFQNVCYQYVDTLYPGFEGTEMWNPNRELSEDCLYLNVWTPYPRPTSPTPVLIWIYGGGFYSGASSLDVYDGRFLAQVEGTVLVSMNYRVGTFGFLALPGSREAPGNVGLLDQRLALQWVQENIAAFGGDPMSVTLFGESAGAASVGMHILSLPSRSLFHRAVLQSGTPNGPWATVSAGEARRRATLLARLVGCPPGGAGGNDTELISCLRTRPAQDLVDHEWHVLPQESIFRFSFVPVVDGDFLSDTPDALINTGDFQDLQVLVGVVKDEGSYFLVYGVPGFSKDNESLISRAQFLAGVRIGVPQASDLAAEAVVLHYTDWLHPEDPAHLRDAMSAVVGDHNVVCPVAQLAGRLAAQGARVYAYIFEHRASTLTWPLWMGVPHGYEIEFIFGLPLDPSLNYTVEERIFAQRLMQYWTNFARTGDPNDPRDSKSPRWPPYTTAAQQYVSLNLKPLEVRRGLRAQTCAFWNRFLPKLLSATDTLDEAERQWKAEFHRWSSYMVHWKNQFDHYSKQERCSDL
Description: Inhibitory activity against acetylcholinesterase in rat striatal preparation

[4] = target: Sodium-dependent noradrenaline transporter (Homo sapiens, UniProt P23975)
Sodium-dependent noradrenaline transporter, sequence (P23975 whole entry): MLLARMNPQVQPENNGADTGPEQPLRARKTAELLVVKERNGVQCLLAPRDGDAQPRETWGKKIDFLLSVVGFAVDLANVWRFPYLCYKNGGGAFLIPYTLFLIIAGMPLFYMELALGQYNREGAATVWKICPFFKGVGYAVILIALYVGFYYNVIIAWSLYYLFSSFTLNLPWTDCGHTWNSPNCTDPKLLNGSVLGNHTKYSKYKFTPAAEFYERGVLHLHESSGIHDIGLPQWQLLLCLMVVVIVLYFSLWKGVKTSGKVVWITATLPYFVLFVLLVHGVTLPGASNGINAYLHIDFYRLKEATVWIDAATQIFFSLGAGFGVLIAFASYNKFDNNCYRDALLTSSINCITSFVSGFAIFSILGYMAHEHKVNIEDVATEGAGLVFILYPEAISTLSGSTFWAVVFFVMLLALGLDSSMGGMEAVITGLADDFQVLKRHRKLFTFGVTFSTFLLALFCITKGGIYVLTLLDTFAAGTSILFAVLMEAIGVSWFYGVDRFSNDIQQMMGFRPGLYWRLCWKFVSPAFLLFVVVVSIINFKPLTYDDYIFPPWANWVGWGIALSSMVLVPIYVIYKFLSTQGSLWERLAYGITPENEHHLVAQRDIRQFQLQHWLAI
Description: Inhibitory activity against norepinephrine (NE) uptake in rat whole brain synaptosome preparation

Mus musculus [5] = organism: Mus musculus; experiment: animal or person
Description: Effective dose against administration in mice

[6] = target: T2, Adrenergic receptor alpha-2 (Rattus norvegicus, UniProt P22086+P19328+P22909); experiment: Inhibitory activity against [3H]clonidine binding to Alpha-2 adrenergic receptor in rat cortex
T2 sequence (P22086 whole entry): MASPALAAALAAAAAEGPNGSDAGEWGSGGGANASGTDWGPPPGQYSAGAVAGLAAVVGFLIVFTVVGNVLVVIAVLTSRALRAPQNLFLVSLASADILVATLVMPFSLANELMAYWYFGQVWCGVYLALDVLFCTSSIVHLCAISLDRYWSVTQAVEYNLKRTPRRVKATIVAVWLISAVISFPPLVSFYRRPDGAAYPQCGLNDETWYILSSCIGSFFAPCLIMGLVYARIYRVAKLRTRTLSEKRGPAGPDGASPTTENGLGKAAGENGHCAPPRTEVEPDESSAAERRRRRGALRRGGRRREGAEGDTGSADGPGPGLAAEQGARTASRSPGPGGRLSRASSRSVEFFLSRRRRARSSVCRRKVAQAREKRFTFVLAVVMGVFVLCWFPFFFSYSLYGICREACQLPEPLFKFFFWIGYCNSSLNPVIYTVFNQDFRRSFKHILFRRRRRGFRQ
T2 sequence (P19328 whole entry): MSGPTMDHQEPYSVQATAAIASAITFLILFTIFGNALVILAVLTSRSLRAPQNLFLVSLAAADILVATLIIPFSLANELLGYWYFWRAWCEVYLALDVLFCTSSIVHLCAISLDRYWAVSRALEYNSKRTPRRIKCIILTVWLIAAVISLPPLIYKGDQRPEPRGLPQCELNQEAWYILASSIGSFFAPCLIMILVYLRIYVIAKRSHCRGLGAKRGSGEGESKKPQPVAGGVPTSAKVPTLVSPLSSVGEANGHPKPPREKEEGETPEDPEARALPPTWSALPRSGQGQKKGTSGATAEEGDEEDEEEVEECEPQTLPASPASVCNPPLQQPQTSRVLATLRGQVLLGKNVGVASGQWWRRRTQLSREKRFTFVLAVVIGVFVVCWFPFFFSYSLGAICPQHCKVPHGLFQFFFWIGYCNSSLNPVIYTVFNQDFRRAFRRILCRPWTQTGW
T2 sequence (P22909 whole entry): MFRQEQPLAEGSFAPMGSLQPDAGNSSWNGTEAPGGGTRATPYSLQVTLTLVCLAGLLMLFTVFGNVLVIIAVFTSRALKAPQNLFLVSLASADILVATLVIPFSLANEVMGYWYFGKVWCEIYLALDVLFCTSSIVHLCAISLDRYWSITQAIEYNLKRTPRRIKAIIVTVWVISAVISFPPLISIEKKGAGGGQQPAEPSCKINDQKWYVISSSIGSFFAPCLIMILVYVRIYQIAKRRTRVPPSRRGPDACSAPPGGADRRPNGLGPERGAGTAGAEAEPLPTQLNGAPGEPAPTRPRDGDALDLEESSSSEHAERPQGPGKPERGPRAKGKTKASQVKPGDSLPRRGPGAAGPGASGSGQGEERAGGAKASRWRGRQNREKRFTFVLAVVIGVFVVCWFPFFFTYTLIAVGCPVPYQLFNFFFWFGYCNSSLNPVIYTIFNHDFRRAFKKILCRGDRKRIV

Mus musculus [7] = organism: Mus musculus; experiment: Antagonistic activity against Scopolamine induced behavioral deficits in mice; 5/6; format: functional
Mus musculus [8] = experiment: Antagonistic activity against Scopolamine induced behavioral deficits in mice at dose 0.16 mg/kg sc; format: functional; conditions: route subcutaneous
Mus musculus [9] = experiment: Antagonistic activity against Scopolamine induced behavioral deficits in mice at dose […] sc; format: functional; conditions: route subcutaneous
Mus musculus [10] = experiment: Antagonistic activity against Scopolamine induced behavioral deficits in mice at dose 1.25 mg/kg sc; format: functional; conditions: route subcutaneous
Mus musculus [11] = organism: Mus musculus; conditions: dose 2.5 mg/kg; route subcutaneous
Description: Antagonistic activity against Scopolamine induced behavioral deficits in mice at dose 2.5 mg/kg sc

Mus musculus [12] = organism: Mus musculus; conditions: dose 5 mg/kg; route subcutaneous
[13] = target: T3, Adrenergic receptor alpha-1 (Rattus norvegicus, UniProt P15823+P23944+P43140); experiment: Inhibitory activity against [3H]WB-4101 binding to Alpha-1 adrenergic receptor in rat whole brain membrane; format: cell membranes
T3 sequence (P15823 whole entry): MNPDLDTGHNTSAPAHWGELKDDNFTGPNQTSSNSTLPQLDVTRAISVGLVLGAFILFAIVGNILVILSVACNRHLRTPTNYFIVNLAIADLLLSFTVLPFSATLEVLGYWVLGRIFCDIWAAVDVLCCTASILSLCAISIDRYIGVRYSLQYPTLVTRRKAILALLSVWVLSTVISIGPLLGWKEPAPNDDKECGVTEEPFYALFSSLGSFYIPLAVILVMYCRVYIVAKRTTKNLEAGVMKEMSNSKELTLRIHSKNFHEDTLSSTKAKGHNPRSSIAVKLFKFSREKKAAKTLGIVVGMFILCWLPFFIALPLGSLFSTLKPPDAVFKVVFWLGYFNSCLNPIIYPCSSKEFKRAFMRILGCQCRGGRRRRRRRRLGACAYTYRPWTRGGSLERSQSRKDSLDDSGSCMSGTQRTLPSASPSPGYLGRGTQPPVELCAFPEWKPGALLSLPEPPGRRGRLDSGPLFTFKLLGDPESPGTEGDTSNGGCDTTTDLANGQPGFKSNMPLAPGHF
T3 sequence (P23944 whole entry): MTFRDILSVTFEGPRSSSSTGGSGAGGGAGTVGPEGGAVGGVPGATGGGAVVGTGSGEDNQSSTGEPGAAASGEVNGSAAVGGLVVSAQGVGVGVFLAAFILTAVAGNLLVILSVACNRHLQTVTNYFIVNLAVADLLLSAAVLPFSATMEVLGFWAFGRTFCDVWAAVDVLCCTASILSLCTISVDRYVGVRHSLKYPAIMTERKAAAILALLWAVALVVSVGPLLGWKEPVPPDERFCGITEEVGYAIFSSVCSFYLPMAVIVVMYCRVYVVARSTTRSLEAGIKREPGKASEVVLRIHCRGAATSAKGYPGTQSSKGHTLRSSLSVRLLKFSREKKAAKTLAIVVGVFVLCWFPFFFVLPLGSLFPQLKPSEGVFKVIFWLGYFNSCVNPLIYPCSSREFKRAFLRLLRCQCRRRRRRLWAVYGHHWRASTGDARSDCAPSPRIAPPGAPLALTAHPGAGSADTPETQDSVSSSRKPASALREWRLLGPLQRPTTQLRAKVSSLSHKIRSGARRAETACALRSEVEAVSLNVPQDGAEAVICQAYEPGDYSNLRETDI
T3 sequence (P43140 whole entry): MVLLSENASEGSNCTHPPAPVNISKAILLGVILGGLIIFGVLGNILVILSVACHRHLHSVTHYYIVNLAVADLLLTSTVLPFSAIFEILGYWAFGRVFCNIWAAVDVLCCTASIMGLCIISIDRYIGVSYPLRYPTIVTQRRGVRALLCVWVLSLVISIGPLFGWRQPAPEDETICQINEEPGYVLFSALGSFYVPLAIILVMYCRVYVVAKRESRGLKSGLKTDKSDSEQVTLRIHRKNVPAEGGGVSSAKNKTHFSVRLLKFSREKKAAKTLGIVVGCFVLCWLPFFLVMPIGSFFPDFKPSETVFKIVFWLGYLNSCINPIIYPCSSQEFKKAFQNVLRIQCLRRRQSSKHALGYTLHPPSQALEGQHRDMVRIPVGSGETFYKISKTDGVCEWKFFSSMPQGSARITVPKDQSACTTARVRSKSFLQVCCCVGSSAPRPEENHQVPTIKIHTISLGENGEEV

Mus musculus [14] = organism: Mus musculus; experiment: Antagonistic activity against Scopolamine induced behavioral deficits in mice; 1/6; format: functional
Mus musculus [15] = organism: Mus musculus; conditions: dose 0.63 mg/kg; route subcutaneous
Mus musculus [16] = organism: Mus musculus; experiment: Antagonistic activity against Scopolamine induced behavioral deficits in mice; 4/6; format: functional
Mus musculus [17] = experiment: Antagonistic activity against Scopolamine induced behavioral deficits in mice at dose 0.63 mg/kg sc; format: functional; conditions: route subcutaneous
Mus musculus [18] = experiment: Antagonistic activity against Scopolamine induced behavioral deficits in mice at dose 5.0 mg/kg sc; format: functional; conditions: route subcutaneous

Row | Compound | Antagonism (Mus musculus [1]) | IC50 [2] [µM] | IC50 [3] [µM] | IC50 (Acetylcholinesterase) [µM] | IC50 [4] [µM] | ED50 (Mus musculus [5]) [mg/kg] | IC50 [6] [µM] | Antagonism (Mus musculus [7]) | Response (Mus musculus [8]) [%] | Response (Mus musculus [9]) [%] | Response (Mus musculus [10]) [%] | Response (Mus musculus [11]) [%] | Response (Mus musculus [12]) [%] | IC50 [13] [µM] | Antagonism (Mus musculus [14]) | Response (Mus musculus [15]) [%] | Antagonism (Mus musculus [16]) | Response (Mus musculus [17]) [%] | Response (Mus musculus [18]) [%]
1 | Cc1cc2ccccc2n1Nc1ccncc1 | 0 | 60 | 29 | > 100 | 3.6 | < 10 |  |  |  |  |  |  |  |  |  |  |  |  | 
2 | CC(C)N(c1ccncc1)n1ccc2ccccc21 |  | 6 | 0.63 | > 100 | 2.3 | 2.9 | > 10 | 5 | 33 | 60 | 36 | 20 | 20 |  |  |  |  |  | 
3 | CCN(c1ccncc1)n1ccc2ccccc21 |  | 10 | 2.4 | > 100 | 0.25 | 3.3 | 0.11 |  |  |  |  |  |  | 3.3 | 1 | 33 |  |  | 
4 | CCCN(c1ccncc1)n1ccc2cc(OC)ccc21 |  | 14 | 4.8 | > 100 | 0.57 | > 20 |  |  | 20 | 20 |  |  |  |  |  |  | 4 | 26 | 36
5 | CN(c1ccncc1)n1ccc2cc([N+](=O)[O-])ccc21 |  | 29 | 7.6 | > 100 | > 30 | > 20 |  |  | 20 |  | 20 |  |  |  |  | 20 | 4 |  | 20
6 | CCCN(c1ccncn1)n1ccc2ccccc21 |  | 391 | 11 | > 100 | 1.4 | > 20 |  |  |  |  |  |  |  |  | 1 |  |  |  | 23
7 | CCCN(c1ccncc1)n1cc(C#N)c2ccccc21 |  | 8.6 | 3.5 |  | 0.75 | 9.2 |  | 5 | 40 | 53 | 29 |  |  |  |  |  |  | 36 | 27
8 | Clc1ccc2c(ccn2Nc2ccncc2)c1 | 0 | 42 | 5.9 | > 100 | > 20 | > 20 |  |  |  |  |  |  |  |  |  |  |  |  | 
9 | c1ccc2c(c1)OCC(C1=NCCN1)O2 (configuration not stated) [IDAZOXAN] |  |  |  |  | > 20 |  |  | 5 |  | 60 | 47 | 53 | 33 |  |  | 43 |  |  | 
